# Results reported in patent publication US20230382886A1, “CONJUGATED TLR7 AND NOD2 AGONISTS” (UNIVERZA V LJUBLJANI, priority 2020, published 2023).
# Tests used:
# [1] = test system: MEC-1 cancer cell line; experiment: PBMC cytotoxicity assay against MEC-1 target cells; assay type: cell-based; conditions: 1 μM; control medium; FIG. 1
# Protocol: (§1) The TLR7 and NOD2 conjugated compounds of the invention were tested for their ability to activate the cytotoxic activity of peripheral blood mononuclear cells (PBMCs) towards cancer cell lines. The main effector fraction of PBMCs in this assay are natural killer (NK) cells, which play an essential role in the innate immune system through their direct cytotoxic activity against aberrant cells, especially tumour cells and virally infected cells. The flow cytometry-based method described hereafter measures the PBMC cytotoxic activity against target cancer cell lines by co-incubating PBMCs and cancer cells, which were pre-labelled by carboxyfluorescein succinimidyl ester (CFSE) to distinguish them from effector cells. Successful activation of effector cells by the tested compounds leads to higher degree of cell death in the target cell population.
# (§2) Chronic myelogenous leukaemia K562 and chronic B cell leukaemia MEC-1 cell lines were used as target cells in the assay. Both cell lines were pre-cultured for at least 10 days before the assay was performed. Immediately prior to the addition of target cells to PBMCs, target cells were stained with CFSE at 2 μM for 15 minutes at 37° C. in the dark. Cells were then washed with medium and resuspended at 200.000 cells/mL.
# (§3) PBMCs were isolated from whole blood by centrifugation with the Ficoll-Paque density gradient solution. After centrifugation, PBMCs were washed twice with PBS and resuspended in medium at 4.000.000 cells/mL. To perform the assay, PBMCs were seeded on 96 well microtiter plates at 400.000 cells per well and cultured in duplicates at 37° C. for 20 h in the presence of the compounds.
# (§4) The compounds were prepared as follows: First, stock solutions of the conjugated compounds were prepared in DMSO at a 1 mM concentration. […]
# (§5) After incubating the PBMCs in the presence of compounds, 10.000 CFSE stained target cells were added to each well for a final 40:1 ratio of effector cells versus target cells. After 4 h of co-incubation, cells were stained with the SYTOXTM Blue (Invitrogen) nucleic acid stain and analysed with flow cytometry. […]
# [2] = test system: K562 cancer cell line; experiment: PBMC cytotoxicity assay against K562 target cells; assay type: cell-based; conditions: 1 μM; control medium; FIG. 2
# Protocol: as §1, §2, §3, §4, §5
# [3] = test system: CD4 positive T-lymphocytes; experiment: Antigen presentation of BMDCs to CD4+ T-lymphocytes; assay type: cell-based, mouse; conditions: for dose dependence of BMDC antigen presentation to CD4 positive T-lymphocytes: 1 nM to 1 μM, FIG. 5; for ability to promote BMDC antigen presentation to CD4 positive T-lymphocytes (ratio of CD25 positive T-lymphocytes with low CFSE fluorescence): 100 nM, ovalbumin, FIG. 3
# Protocol: (§6) The effect of the conjugated compounds of the invention on antigen presentation of mouse bone marrow derived dendritic cells (BMDCs) to T-lymphocytes was examined.
# (§7) BMDCs were obtained by harvesting bone marrow from mouse hind legs. The harvested cells were then cultured for 10 days in the presence of granulocyte-macrophage colony-stimulating factor
# (§8) (GM-CSF) to ensure differentiation into dendritic cells. BMDCs were seeded on 96 well microtiter plates at 10.000 cells per well and stimulated in duplicates with conjugated compounds and ovalbumin (50 μg/mL) at 37° C. for 20 h. After this period, the supernatants were removed and either CD4+ T-Iymphocytes or CD8+ T-Iymphocytes were added.
# (§9) The compounds were prepared as follows: First, stock solutions of the conjugated compounds were prepared in DMSO at a 1 mM concentration. The working dilutions of the conjugated compounds in medium were then added directly to BMDCs to ensure final concentrations ranging from 1 nM to 1 μM.
# (§10) CD4+ and CD8+ T-lymphocytes were obtained from single-cell suspensions of spleens from OT-II and OT-I transgenic mice, respectively. These express a T-cell receptor that pairs with the CD4 or CD8 co-receptors and is specific for the ovalbumin antigen. After harvesting the spleen, CD4+ or CD8+ cell fractions were enriched with MACS separation technology (Miltenyi Biotec CD4+ T Cell Isolation Kit or CD8+ T Cell Isolation Kit, respectively). T-lymphocytes were then stained with CFSE and added to BMDCs at 50.000 cells per well.
# (§11) After co-culturing the BMDCs and T-lymphocytes for 72 hours at 37° C., T-lymphocyte activation was assessed with flow cytometry by measuring the expression of CD25, characteristic for activated T-lymphocytes. Concurrently, the intensity of CFSE fluorescence was measured to evaluate T-lymphocyte proliferation. […] SG48, SG144 and RH32 were the tested conjugated compounds of the invention. Medium was used as a negative control. LPS (1 μg/mL) was used as the positive control. Intermediary compound SG8 was employed as a known NOD2 agonist of the desmuramylpeptide type (Gobec et al. 2018). Intermediary compound SG43 was employed as a known TLR7 agonist of the purine type (Akinbobuyi et al. 2016). The combination of SG8 and SG43 was employed to compare the activity of conjugated compounds against an unconjugated mixture of NOD2 and TLR7 agonists.
# [4] = test system: CD8 positive T-lymphocytes; experiment: Antigen presentation of BMDCs to CD8+ T-lymphocytes; assay type: cell-based, mouse; conditions: for dose dependence of BMDC antigen presentation to CD8 positive T-lymphocytes: 1 nM to 1 μM, FIG. 6; for ability to promote BMDC antigen presentation to CD8 positive T-lymphocytes (ratio of CD25 positive T-lymphocytes with low CFSE fluorescence): 100 nM, ovalbumin, FIG. 4
# Protocol: as §6, §7, §8, §9, §10, §11
SMILES,ability to activate the cytotoxic activity of PBMCs against the MEC-1 cancer cell line (ratio against the control) [1],ability to activate the cytotoxic activity of PBMCs against the K562 cancer cell line (ratio against the control) [2],dose dependence of BMDC antigen presentation to CD4 positive T-lymphocytes [3],ability to promote BMDC antigen presentation to CD4 positive T-lymphocytes (ratio of CD25 positive T-lymphocytes with low CFSE fluorescence) [3],dose dependence of BMDC antigen presentation to CD8 positive T-lymphocytes [4],ability to promote BMDC antigen presentation to CD8 positive T-lymphocytes (ratio of CD25 positive T-lymphocytes with low CFSE fluorescence) [4]
"CCCCOc1nc(N)c2nc(O)n(Cc3ccc(C(=O)NCCCCCC(=O)Oc4ccc(/C=C/C(=O)NCC(=O)N[C@H](C(=O)N[C@H](CCC(=O)OCC)C(=O)OCC)C(C)C)cc4OC)cc3)c2n1 [SG48, Diethyl ((E)-3-(4-((6-(4-((6-amino-2-butoxy-8-hydroxy-9H-purin-9-yl)methyl)benzamido)hexanoyl)-oxy)-3-methoxyphenyl)acryloyl)glycyl-L-yalyl-D-glutamate]",activate the cytotoxic activity of PBMCs,activate the cytotoxic activity of PBMCs,dose-dependent,promote BMDC antigen presentation,dose-dependent,promote BMDC antigen presentation
CCCCOc1nc(N)c2nc(O)n(Cc3ccc(C(=O)NCCOCCOCCNC(=O)CC[C@@H](NC(=O)[C@@H](NC(=O)CNC(=O)/C=C/c4ccc(O)c(OC)c4)C(C)C)C(=O)OCC)cc3)c2n1 [RH32],activate the cytotoxic activity of PBMCs,activate the cytotoxic activity of PBMCs,–,promote BMDC antigen presentation,–,promote BMDC antigen presentation
"CCCCOc1nc(N)c2nc(O)n(Cc3ccc(C(=O)NCCOCCNC(=O)CC[C@@H](NC(=O)[C@@H](NC(=O)CNC(=O)/C=C/c4ccc(O)c(OC)c4)C(C)C)C(=O)OCC)cc3)c2n1 [SG144, Ethyl N5-(2-(2-(4-((6-amino-2-butoxy-8-hydroxy-9H-purin-9-yl)methyl)benzamido)ethoxy)ethyl)-N2-((E)-3-(4-hydroxy-3-methoxyphenyl)acryloyl)glycyl-L-yalyl-D-glutaminate]",activate the cytotoxic activity of PBMCs,activate the cytotoxic activity of PBMCs,dose-dependent,promote BMDC antigen presentation,dose-dependent,promote BMDC antigen presentation
